Test results reported in patent US11564899B2, “Therapy for transthyretin-associated amyloidosis” (SOM INNOVATION BIOTECH, S.L., priority 2011, dated 2023).

Legend:
Format in all cases: biochemical
[1] = molecular target: T1, Recombinant Y78F TTR protein (Homo sapiens, UniProt P02766, Y98F); test: Kinetic turbidity assay of TTR fibril formation; conditions: Y78F TTR 0.4 mg/mL, RA=100*B/(A+B)
T1 construct: made in house
Method: Stocks of compounds assayed as inhibitors were dissolved in DMSO (spectrophotometry grade from Sigma) at 1.5 mM concentration. Working solutions were prepared by diluting the stock solution 1:4 in H2O/DMSO (2:1). In all cases, DMSO concentration was adjusted to 5% (v/v) in the final reaction assay mixture.
The assay comprises two stages, one stage where the Y78F protein is incubated together with the inhibitor during 30 minutes, and a second stage where fibril formation is induced by a change in pH and absorbance is measured along 1.5 h. Briefly, the assay was performed as follows:
First, the following solutions were prepared: Protein Y78F stock: 4 mg/mL in 20 mM phosphate, 100 mM KCl, pH 7.6. Incubation buffer: 10 mM phosphate, 100 mM KCl, 1 mM EDTA, pH 7.6. Dilution buffer: 400 mM sodium acetate, 100 mM KCl, 1 mM EDTA, pH 4.2.
Incubation buffer was then added up to a volume of 100 μL. The plate was incubated at 37° C. in a thermostated microplate reader with orbital shaking 15 s every minute for 30 min. A 100 μL portion of dilution buffer was dispensed to each well, and the mixture was incubated at 37° C. with shaking (15 s every min) in the microplate reader. Absorbance at 340 nm was monitored for 1.5 h at 1 min intervals. Data were collected and analyzed using Microsoft Excel software. All assays were done in duplicate.
After following the general procedure indicated above, time-course curves were obtained, from which the initial rates of fibril formation (V0) were calculated as the slopes of the linear increase of absorbance. […] Data were fitted to equation (1): V0=A+B*e^−C[I] (1), where V0 is the initial rate of fibril formation (in absorbance units per hour, Abs*h^−1), and [I] is the concentration of the inhibitor (μM). Adjustable parameters are A (Abs*h^−1), residual aggregation rate at high concentration of inhibitor; B (Abs*h^−1), amplitude or maximum decrease of initial rate of fibril formation; and C (μM^−1), the exponential constant. A+B is equal to the initial rate of fibril formation under the assay conditions in the absence of inhibitor. […]

[2] = test system: plasma TTR tetramer (controls and TTR V30M carriers); conditions: human plasma (controls and V30M carriers pooled), 4 M urea IEF, relative to non-treated plasma of same donor
Method: The preparations were subjected to native PAGE (5% acrylamide) and the gel band containing TTR was excised and applied to an IEF gel (5% acrylamide). IEF was carried out in semi-denaturing conditions (4 M urea), containing 5% (v/v) ampholytes pH 4-6.5 (GE Healthcare), at 1200 V for 6 hours. Proteins were stained with Coomassie Blue, the gels were scanned and subjected to densitometry using the ImageQuant program (HP Scanjet 4470c, Hewlett Packard). […] A total of 12 plasma samples (5 controls and 7 carriers TTR V30M) were analyzed in 3 IEF gels. For each treatment condition, a minimum of 4 samples from different donors were processed. The ratio of TTR tetramer over Total TTR (TTR tetramer+monomer) was calculated for each plasma sample and represented in FIG. 2.
The increase of the tetramer/total TTR ratio induced by the treatment with test compounds was pooled for all samples and represented in Table 4 as % of stabilization. These values were calculated after normalizing the tetramer/total TTR ratio obtained for each sample, with the ratio obtained for the non-treated plasma of the corresponding individual donor as described below: % stabilization=100×((ratio sample−ratio nt)/ratio nt). Where “ratio sample” is tetramer/total TTR ratio in the presence of compound; and “ratio nt” is tetramer/total TTR ratio of non-treated plasma from same donor.

[3] = molecular target: T2, Recombinant V122I TTR protein (Homo sapiens, UniProt P02766, V142I); test: End-point turbidity assay (72 h) with V122I TTR; conditions: V122I 0.4 mg/mL
T2 construct: made in house
Method: Recombinant V122I TTR protein, which is an amyloidogenic variation of human TTR associated with Familial Amyloid Cardiomyopathy (FAC), was produced by following the same procedure described for the Y78F variant used in Example 1. Plasmid DNA expressing the V122I mutant was prepared by site-directed mutagenesis as reported for Y78F in Dolado et al (supra). but using the following primers: 5′-[…]-3′ and 5′-[…]-3′.
This assay is used for TTR variants with lower amyloidegenicity than the Y78F variant when the kinetic turbidity assay is not sensitive enough for accurate measurements. The procedure followed to test the inhibitors by this end-point assay at 72 h is reported in Dolado et al, (supra). V122I TTR was incubated with the inhibitor under the same conditions described above for the kinetic turbidity assay (Example 1), using V122I protein at a concentration of 0.4 mg/mL and three different concentrations of inhibitor: […], corresponding to 0.5×[protein], 1×[protein], and 3×[protein]. After acid induction (addition of dilution buffer), samples were incubated without shaking for 72 h at 37° C. and then homogenized by mixing to resuspend any fibrils present. Turbidity was measured at 340 nm and normalized to amyloidogenesis in the absence of inhibitor.
The inhibitory potency of the tested compounds was evaluated as the percentage of absorvance reduction of the inhibitor-containing samples when compared with the inhibitor-free control sample.
% Fibril reduction=100×(1-turbidity sample/turbidity blank), where turbidity sample is the turbidity measured in the presence of inhibitor, and turbidity blank is that in the absence of inhibitor.

[4] = inhibitor 0.5x[protein] (3.6 microM)
[5] = inhibitor 1x[protein] (7.2 microM)
[6] = inhibitor 3x[protein] (21.8 microM)

SMILES	RA (%) percentage of amyloidosis reduction (reduction of fibril formation rate at high inhibitor concentration) [1]	% stabilization (average +/− sem) of TTR tetramer [2]	% Fibril Reduction [3, 4]	% Fibril Reduction [3, 5]	% Fibril Reduction [3, 6]
O=C(O)c1ccc2nc(-c3cc(Cl)cc(Cl)c3)oc2c1 [Tafamidis, 2-(3,5-dichlorophenyl)-1,3-benzoxazole-6-carboxylic acid]	99%	16.4 +/− 5.49%	–	–	–
Cc1ccc(C(=O)c2cc(O)c(O)c([N+](=O)[O-])c2)cc1 [Tolcapone, 3,4-dihydroxy-4′-methyl-5-nitrobenzophenone]	85.8%	29.9 +/− 7.64%	79.3%	84.3%	100.0%
O=C(O)c1cc(-c2ccc(F)cc2F)cc(I)c1O [Iododiflunisal]	99.8%	–	83.2%	85.0%	88.2%
